These results are taken from article PMC11997881, “Comprehensive Characterization of Bruton’s Tyrosine Kinase Inhibitor Specificity, Potency, and Biological Effects: Insights into Covalent and Noncovalent Mechanistic Signatures” (ACS Pharmacology & Translational Science, 2025).

“Also recorded” adds a separate entry of the source. Read-outs that look alike come from different tables or passages of the source.

The target in one series is T1, wild-type BTK (Homo sapiens, UniProt Q06187).
T1 construct: made in house; host or cells: transiently transfected HEK293 cells (unpurified extract)
Briefly: KdELECT competition binding, wild-type BTK. The method, then: Using Eurofins Discovery’s KdELECT Kinase Assay Panel (San Diego, CA), we measured the ATP-independent in vitro binding affinity of the aforementioned BTK inhibitors to wild-type BTK.
Protein extracts were harvested in M-PER extraction buffer (Pierce Biotechnology, Rockford, IL) supplemented with 150 mM NaCl, 10 mM Dithiothreitol (DTT), Protease Inhibitor Cocktail Complete (Roche Diagnostics GmbH, Mannheim, Germany), and Phosphatase Inhibitor Cocktail Set II (Merck KGaA, Darmstadt, Germany) following the manufacturer’s guidelines. The fusion protein was labeled with a DNA tag containing the NFκB binding site fused to an amplicon for qPCR readout, which was added directly to the expression extract.
Kds were calculated using a standard dose–response curve fitting of the data using the Hill equation: Response = Background + (Signal – Background)/(1 + (Kd ^Hill Slope/Dose^Hill Slope). The Hill Slope was set to −1. A nonlinear least-square fit using the Levenberg–Marquardt algorithm was employed for curve fitting.

For another series, the target named is T2, TEC (Homo sapiens, UniProt P42680).
T2 sequence (P42680 1-631): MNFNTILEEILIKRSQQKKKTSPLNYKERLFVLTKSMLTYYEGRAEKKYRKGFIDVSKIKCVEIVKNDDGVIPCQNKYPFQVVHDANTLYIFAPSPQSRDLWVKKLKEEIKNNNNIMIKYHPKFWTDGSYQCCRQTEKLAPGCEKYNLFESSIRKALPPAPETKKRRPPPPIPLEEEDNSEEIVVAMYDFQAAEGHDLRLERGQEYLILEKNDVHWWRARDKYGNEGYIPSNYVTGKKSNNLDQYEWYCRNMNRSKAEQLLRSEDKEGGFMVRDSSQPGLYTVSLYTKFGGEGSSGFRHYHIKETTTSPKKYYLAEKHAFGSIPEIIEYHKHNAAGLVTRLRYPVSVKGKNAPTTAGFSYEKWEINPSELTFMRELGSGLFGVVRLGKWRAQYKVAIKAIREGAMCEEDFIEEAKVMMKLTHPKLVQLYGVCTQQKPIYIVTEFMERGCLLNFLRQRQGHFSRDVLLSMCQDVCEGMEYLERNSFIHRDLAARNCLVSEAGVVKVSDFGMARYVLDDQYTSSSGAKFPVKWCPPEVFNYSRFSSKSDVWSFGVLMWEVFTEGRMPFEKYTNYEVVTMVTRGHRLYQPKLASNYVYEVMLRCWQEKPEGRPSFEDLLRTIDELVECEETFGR
The series can be described thus: scanMAX binding POC, TEC. The conditions noted are these: 1 μM.

For another series, the target named is T3, BMX (Homo sapiens, UniProt P51813).
T3 sequence (P51813 1-675): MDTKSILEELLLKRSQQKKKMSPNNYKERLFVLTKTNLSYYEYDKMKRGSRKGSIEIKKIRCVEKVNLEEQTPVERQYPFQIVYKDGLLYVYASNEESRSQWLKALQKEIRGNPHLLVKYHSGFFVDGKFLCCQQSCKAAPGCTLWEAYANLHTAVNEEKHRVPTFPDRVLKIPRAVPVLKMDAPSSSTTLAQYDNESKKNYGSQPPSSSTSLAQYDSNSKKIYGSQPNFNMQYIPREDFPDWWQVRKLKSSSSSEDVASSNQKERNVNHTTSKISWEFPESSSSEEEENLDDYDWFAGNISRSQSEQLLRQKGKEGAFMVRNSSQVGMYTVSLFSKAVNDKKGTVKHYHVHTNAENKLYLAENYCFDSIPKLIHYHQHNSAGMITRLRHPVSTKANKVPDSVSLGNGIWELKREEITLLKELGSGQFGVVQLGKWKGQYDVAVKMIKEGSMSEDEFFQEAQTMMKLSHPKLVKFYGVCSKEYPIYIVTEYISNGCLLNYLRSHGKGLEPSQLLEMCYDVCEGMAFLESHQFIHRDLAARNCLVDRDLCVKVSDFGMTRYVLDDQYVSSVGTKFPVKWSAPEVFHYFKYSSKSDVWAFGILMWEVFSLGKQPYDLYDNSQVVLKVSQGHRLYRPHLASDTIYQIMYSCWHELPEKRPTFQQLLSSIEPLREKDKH
Briefly: scanMAX binding POC, BMX. The conditions noted are these: 1 μM. The source says: Comprehensive Characterization of Bruton’s Tyrosine Kinase Inhibitor Specificity, Potency, and
Biological Effects: Insights into Covalent and Non-Covalent Mechanistic Signatures
Antonia C. Darragh1, Andrew M. Hanna1, Justin H. Lipner2, Alastair J. King2, Nicole B. Servant1, Mirza Jahic1*
*To whom correspondence should be addressed: Mirza Jahic, e-mail address: Mirza.Jahic@discovery.eurofinsus.com
Supporting Table S1. Comparison of BTK inhibitor specificity to TEC family members. TEC family members are
Burton’s tyrosine kinase (BTK), tyrosine kinase expressed in hepatocellular carcinoma (TEC), bone marrow-
expressed kinase (BMX/ETK), and T cell-expressed kinase (TXK/RLK), and interleukin-2-inducible T cell kinase
A zero POC signifies that the compound

Series [1] concerns 12 human primary cell systems. The series can be described thus: BioMAP Diversity PLUS Panel. The conditions noted are these: for number of biological effects (biomarkers modulated) / number of effects in a non-B cell (non-BT) model: 1 μM; for immunomodulatory activities / tissue remodeling activities / inflammation-related activities / hemostasis/angiogenesis-related activities: biomarker level relative to vehicle control: ↑ increase, ↓ decrease; for inflammation-related activities: ↓↑ both; for hemostasis/angiogenesis-related activities: TF in the 3C model; for antiproliferative effects: cell types affected, concentrations (nM) in brackets; for detectable cytotoxicity: concentrations (nM): ibrutinib 3300, 1100, 370, 120, pirtobrutinib and fenebrutinib 1000, 330, 110, 37, spebrutinib 370, 120, 41, 14. The class given is cell-based. The method, then: BioMAP Diversity PLUS Panel (Eurofins Discovery, St. Charles, MO) is composed of 12 human primary cell cultures or cocultures. The systems and stimuli have been described previously. Adherent cells were added to 96-well plates, allowed to reach confluence, and incubated for 1 h with the indicated BTK inhibitor or assay control, all dissolved in 0.1% DMSO. The cells were then stimulated with cytokines, agonists, or growth factors and cultured for a minimum of 24 h at 37 °C in 5% CO2. Assay controls included DMSO-only (vehicle control), nonstimulated conditions (negative control), and a positive control test agent (colchicine at 1 μM).
Cell proliferation and viability were measured using 0.1% sulforhodamine B (SRB, Sigma–Aldrich) after fixation with 10% TCA, and reading wells at 560 nm for adherent cells, and using alamarBlue reduction (Bio-Rad) for suspension cells. These biomarkers were previously described by Shah and colleagues.
For each biomarker, the value obtained from the BTK inhibitor-treated samples was divided by the average of 8 DMSO-only controls from the same plate, yielding a ratio that was then transformed to the log10 scale. […] For cytotoxicity, we considered a decrease in the SRB readout greater than 50% (<−0.3 on the log10 scale) significant and excluded from the analysis the corresponding concentrations. The acceptance criteria and quality assurance of the BioMAP experiments have been previously described.

The target of a further series is JNK1 (MAPK8) (Homo sapiens, UniProt P45983). Briefly: scanMAX binding POC, JNK1. The conditions noted are these: 1 μM.
Where [2] appears, read: ATP-independent in vitro binding, 25 °C, read-out: Kd for wild-type BTK.
[3] abbreviates: category by Kd for wild-type BTK, read-out: potency for BTK.
[4] abbreviates: wild-type BTK, average of N replicates, each in technical duplicate, read-out: average in-house Kd for BTK.

T1 sequence (Q06187 whole entry): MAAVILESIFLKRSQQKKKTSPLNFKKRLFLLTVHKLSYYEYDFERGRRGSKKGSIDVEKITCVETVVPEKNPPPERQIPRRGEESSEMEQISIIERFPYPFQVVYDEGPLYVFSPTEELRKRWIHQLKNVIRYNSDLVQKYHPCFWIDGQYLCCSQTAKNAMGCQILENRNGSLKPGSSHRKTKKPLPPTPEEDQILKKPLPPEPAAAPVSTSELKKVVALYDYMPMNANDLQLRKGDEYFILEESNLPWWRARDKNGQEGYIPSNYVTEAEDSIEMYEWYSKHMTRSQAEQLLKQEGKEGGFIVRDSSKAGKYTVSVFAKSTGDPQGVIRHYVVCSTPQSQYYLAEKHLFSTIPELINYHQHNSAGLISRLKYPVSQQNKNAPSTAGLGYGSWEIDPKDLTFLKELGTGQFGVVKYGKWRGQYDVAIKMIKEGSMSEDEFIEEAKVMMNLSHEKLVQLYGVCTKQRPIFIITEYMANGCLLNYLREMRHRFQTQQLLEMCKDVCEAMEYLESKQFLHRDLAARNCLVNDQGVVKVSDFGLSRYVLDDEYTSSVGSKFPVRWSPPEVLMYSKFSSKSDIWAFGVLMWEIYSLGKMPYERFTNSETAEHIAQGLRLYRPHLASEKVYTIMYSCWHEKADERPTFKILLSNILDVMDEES
Sequence of JNK1 (MAPK8) (P45983 whole entry): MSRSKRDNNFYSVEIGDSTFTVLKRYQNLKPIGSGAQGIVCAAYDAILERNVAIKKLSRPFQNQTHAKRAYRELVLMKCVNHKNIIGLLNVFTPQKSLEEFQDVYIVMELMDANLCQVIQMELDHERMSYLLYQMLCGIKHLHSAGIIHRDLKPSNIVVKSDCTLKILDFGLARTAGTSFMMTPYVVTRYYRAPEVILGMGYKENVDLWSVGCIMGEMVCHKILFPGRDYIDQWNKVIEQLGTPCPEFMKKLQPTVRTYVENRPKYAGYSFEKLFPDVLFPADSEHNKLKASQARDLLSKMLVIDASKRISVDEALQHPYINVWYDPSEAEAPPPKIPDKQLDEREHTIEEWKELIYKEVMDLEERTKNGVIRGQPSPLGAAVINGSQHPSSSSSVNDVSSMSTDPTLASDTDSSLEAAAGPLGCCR

Consider `COc1ccc(F)cc1C(=O)NCc1ccc(-c2nn([C@@H](C)C(F)(F)F)c(N)c2C(N)=O)cc1` [Pirtobrutinib], for which the Kd at wild-type BTK (setting [2]) worked out at 0.81 nM. In addition, the Kd on wild-type BTK (setting [3]) was under 1 nM. For the same compound, at wild-type BTK (wild-type BTK), the “fold difference between in-house and published Kd's” value came out at 1.1 fold. The Kd on wild-type BTK (setting [4]) came out at 0.81 nM. Further, the “TEC binding POC” value on TEC is recorded as 12% of control. On BMX, the “BMX binding POC” value is on record as 51% of control. Also, in series [1], the “number of biological effects (biomarkers modulated)” value was determined as 7; the “number of effects in a non-B cell (non-BT) model” value is recorded as 1; the immunomodulatory activities entry was “↓ sIL-17A, sIL-17F, sIL-2, sIL-6”; the tissue remodeling activities result is on record as “none”. For the same compound, in series [1], the inflammation-related activities entry was “↓ sTNFα, IL-1α”; the hemostasis/angiogenesis-related activities entry is reported as “none”; the antiproliferative effects entry is “B cells (1000, 330, 110, 37)”; the detectable cytotoxicity result is reported as “none”. Moreover, on JNK1 (MAPK8), the “JNK1 (MAPK8) POC” value was 96% of control.
Turning to `C=CC(=O)N1CCC[C@@H](c2ccc(C(N)=O)c3[nH]ccc23)C1` [Elsubrutinib], the values for the Kd on wild-type BTK (setting [2]), at wild-type BTK (setting [3]) and on wild-type BTK (setting [4]) were 2.9 nM, 1 to 10 nM and 2.9 nM, respectively. Also, the “fold difference between in-house and published Kd's” value at wild-type BTK (wild-type BTK) stood at 1.1 fold. Further, the “TEC binding POC” value at TEC is on record as 18% of control. For the same compound, the “BMX binding POC” value on BMX is 20% of control. Besides, the “JNK1 (MAPK8) POC” value at JNK1 (MAPK8) was 96% of control.
For the compound `O=C(c1ccc(Oc2ccccc2)cc1Cl)c1c[nH]c2ncnc(N[C@@H]3CC[C@@H](CO)OC3)c12` [Nemtabrutinib], the “TEC binding POC” value on TEC was 7.3% of control. In addition, the “BMX binding POC” value at BMX is 8.5% of control. The “JNK1 (MAPK8) POC” value on JNK1 (MAPK8) is given as 39% of control.
Consider `C=CC(=O)Nc1cccc(Oc2nc(Nc3ccc(N4CCN(C)CC4)cc3)nc3ccoc23)c1` [Poseltinib], for which the Kd was 1.5 nM at wild-type BTK (setting [2]), 1 to 10 nM on wild-type BTK (setting [3]) and 1.5 nM on wild-type BTK (setting [4]). In addition, the “TEC binding POC” value at TEC was 8.5% of control. Also, the “BMX binding POC” value on BMX is recorded as 12% of control. On JNK1 (MAPK8), the “JNK1 (MAPK8) POC” value was 32% of control.
With `C=CC(=O)Nc1cccc(Nc2nc(Nc3ccc(OCCOC)cc3)ncc2F)c1` [Spebrutinib], the “TEC binding POC” value at TEC is 8.1% of control. In addition, the “BMX binding POC” value on BMX is given as 10% of control. Moreover, in series [1] (370 nM), the “number of biological effects” value came to 11 and the “number of effects not in the BT model” value is 6. In series [1], the immunomodulatory activities entry is given as “↓ sIL-17A, sIL-2, sIL-6”; the tissue remodeling activities result is on record as “↓ PAI-1, Col-I, Col-IV”; the inflammation-related activities entry is given as “↓ sTNFα”; the hemostasis/angiogenesis-related activities entry was “none”. Further, in series [1], the antiproliferative effects result is “B cells (370, 120, 41, 14); endothelial cells (370); CASM cells (370); fibroblast cells (370)” and the detectable cytotoxicity result is “none”. In series [1] (listed as spebrutinib), the tissue remodeling activities entry is “decreased the activity of tissue remodeling biomarkers”; the antiproliferative effects entry is “antiproliferative effects in endothelial (3C), coronary artery smooth muscle (CASM), and fibroblast (HDF3CGF) cells; also recorded: antiproliferative activity in CASM cells”. In addition, the “JNK1 (MAPK8) POC” value at JNK1 (MAPK8) is 4.8% of control.
In the case of `C[C@H]1CN(C2COC2)CCN1c1ccc(Nc2cc(-c3ccnc(N4CCn5c(cc6c5CC(C)(C)C6)C4=O)c3CO)cn(C)c2=O)nc1` [Fenebrutinib], at TEC, the “TEC binding POC” value is recorded as 17% of control. In addition, in series [1], the “number of biological effects (biomarkers modulated)” value stood at 8; the “number of effects in a non-B cell (non-BT) model” value is listed as 3; the immunomodulatory activities entry is given as “↓ sIgG, sIL-2, sIL-6”; the tissue remodeling activities result was “none”. In series [1], the inflammation-related activities result is “↓ sTNFα, IL-1α”; the hemostasis/angiogenesis-related activities result is reported as “↑ TF”; the antiproliferative effects entry is “B cells (1000, 330, 110, 37)”; the detectable cytotoxicity result was “none”. The hemostasis/angiogenesis-related activities result in series [1] (listed as fenebrutinib) was “increase in the production of Tissue Factor (TF)”. Moreover, the “JNK1 (MAPK8) POC” value on JNK1 (MAPK8) was 100% of control.
